According to the supplement of paper PMC10883282:

Columns and labels:
Assay in all cases: relative viability vs DMSO control (72 h) (fraction); higher = more viable cells
A204 = tested on: A204
Procedure, shortened: (§1)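 Sarcoma cell lines were seeded in 384-well plates at densities chosen for 80–90% confluence, then 24 h later given 2.5 µl of serially diluted compound drawn from source plates spanning 10 mM to 0.0002 mM. They were held 72 h at 37 °C, 5% CO2, with 0.1% DMSO vehicle and a 5 µM positive control included. Relative viability was read with ATPLite as percent growth and averaged over up to triplicate wells. Rescaling placed full at 1 and none at 0.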

G401 = tested on: G401
Procedure, shortened: as §1

HT1080 = tested on: HT1080
Procedure, shortened: as §1

KHOS-240S = tested on: KHOS-240S
Procedure, shortened: as §1

KHOS-NP = tested on: KHOS-NP
Procedure, shortened: as §1

RD-ES = tested on: RD-ES
Procedure, shortened: as §1

SK-ES-1 = tested on: SK-ES-1
Procedure, shortened: as §1

SW1353 = tested on: SW1353
Procedure, shortened: as §1

SW684 = tested on: SW684
Procedure, shortened: as §1

SW872 = tested on: SW872
Procedure, shortened: as §1

SW982 = tested on: SW982
Procedure, shortened: as §1

SYO-1 = tested on: SYO-1
Procedure, shortened: as §1

N#Cc1ccnc(N2C(=O)CC[C@H]2C(=O)N(c2cncc(F)c2)[C@H](C(=O)NC2CC(F)(F)C2)c2ccccc2Cl)c1 [Ivosidenib]
Details	relative viability
A204, 0.00017 µM	1.07
A204, 0.00051 µM	1.03
A204, 0.00152 µM	1.11
A204, 0.00457 µM	1.06
A204, 0.01372 µM	1.04
A204, 0.04115 µM	1.03
A204, 0.1235 µM	1.05
A204, 0.3704 µM	1.015
A204, 1.111 µM	1.06
A204, 3.333 µM	1.03
A204, 10 µM	0.971
G401, 0.00017 µM	0.926
G401, 0.00051 µM	0.927
G401, 0.00152 µM	0.971
G401, 0.00457 µM	1.01
G401, 0.01372 µM	0.952
G401, 0.04115 µM	0.934
G401, 0.1235 µM	0.99
G401, 0.3704 µM	0.943
G401, 1.111 µM	0.958
G401, 3.333 µM	0.929
G401, 10 µM	0.896
HT1080, 0.00017 µM	0.987
HT1080, 0.00051 µM	1.07
HT1080, 0.00152 µM	1.03
HT1080, 0.00457 µM	1.0513
HT1080, 0.01372 µM	1.09
HT1080, 0.04115 µM	1.07
HT1080, 0.1235 µM	1.11
HT1080, 0.3704 µM	1.106
HT1080, 1.111 µM	1.1
HT1080, 3.333 µM	1.09
HT1080, 10 µM	1.05
KHOS-240S, 0.00017 µM	1.03
KHOS-240S, 0.00051 µM	1.04
KHOS-240S, 0.00152 µM	1.04
KHOS-240S, 0.00457 µM	1.057
KHOS-240S, 0.01372 µM	1.04
KHOS-240S, 0.04115 µM	1.046
KHOS-240S, 0.1235 µM	1.02
KHOS-240S, 0.3704 µM	1.03
KHOS-240S, 1.111 µM	1.02
KHOS-240S, 3.333 µM	1.022
KHOS-240S, 10 µM	0.998
KHOS-NP, 0.00017 µM	1.05
KHOS-NP, 0.00051 µM	1.05
KHOS-NP, 0.00152 µM	1.07
KHOS-NP, 0.00457 µM	1.07
KHOS-NP, 0.01372 µM	1.05
KHOS-NP, 0.04115 µM	1.05
KHOS-NP, 0.1235 µM	1.06
KHOS-NP, 0.3704 µM	1.03
KHOS-NP, 1.111 µM	1.05
KHOS-NP, 3.333 µM	1.05
KHOS-NP, 10 µM	1.06
RD-ES, 0.00017 µM	0.948
RD-ES, 0.00051 µM	0.976
RD-ES, 0.00152 µM	1
RD-ES, 0.00457 µM	0.977
RD-ES, 0.01372 µM	0.996
RD-ES, 0.04115 µM	0.986
RD-ES, 0.1235 µM	1
RD-ES, 0.3704 µM	1.02
RD-ES, 1.111 µM	0.986
RD-ES, 3.333 µM	0.973
RD-ES, 10 µM	0.9403
SK-ES-1, 0.00017 µM	0.941
SK-ES-1, 0.00051 µM	0.962
SK-ES-1, 0.00152 µM	0.984
SK-ES-1, 0.00457 µM	1.02
SK-ES-1, 0.01372 µM	0.988
SK-ES-1, 0.04115 µM	1.01
SK-ES-1, 0.1235 µM	1
SK-ES-1, 0.3704 µM	0.965
SK-ES-1, 1.111 µM	1
SK-ES-1, 3.333 µM	0.978
SK-ES-1, 10 µM	0.983
SW684, 0.00017 µM	1.056
SW684, 0.00051 µM	1.07
SW684, 0.00152 µM	1.08
SW684, 0.00457 µM	1.11
SW684, 0.01372 µM	1.13
SW684, 0.04115 µM	1.06
SW684, 0.1235 µM	1.11
SW684, 0.3704 µM	1.1
SW684, 1.111 µM	1.1
SW684, 3.333 µM	1.1
SW684, 10 µM	1
SW872, 0.00017 µM	1.03
SW872, 0.00051 µM	1.04
SW872, 0.00152 µM	1.04
SW872, 0.00457 µM	1.052
SW872, 0.01372 µM	1.06
SW872, 0.04115 µM	1.03
SW872, 0.1235 µM	1.03
SW872, 0.3704 µM	1.04
SW872, 1.111 µM	1.05
SW872, 3.333 µM	1.047
SW872, 10 µM	1.04
SW982, 0.00017 µM	1.02
SW982, 0.00051 µM	0.981
SW982, 0.00152 µM	0.987
SW982, 0.00457 µM	1
SW982, 0.01372 µM	0.996
SW982, 0.04115 µM	1.01
SW982, 0.1235 µM	0.984
SW982, 0.3704 µM	0.966
SW982, 1.111 µM	0.975
SW982, 3.333 µM	0.982
SW982, 10 µM	0.971
SW1353, 0.00017 µM	0.966
SW1353, 0.00051 µM	0.94
SW1353, 0.00152 µM	0.976
SW1353, 0.00457 µM	0.935
SW1353, 0.01372 µM	0.976
SW1353, 0.04115 µM	0.972
SW1353, 0.1235 µM	0.949
SW1353, 0.3704 µM	0.98
SW1353, 1.111 µM	0.929
SW1353, 3.333 µM	0.973
SW1353, 10 µM	0.972
SYO-1, 0.00017 µM	1.03
SYO-1, 0.00051 µM	1.01
SYO-1, 0.00152 µM	1.07
SYO-1, 0.00457 µM	1.02
SYO-1, 0.01372 µM	1.01
SYO-1, 0.04115 µM	1.01
SYO-1, 0.1235 µM	1.02
SYO-1, 0.3704 µM	1.01
SYO-1, 1.111 µM	1.02
SYO-1, 3.333 µM	1.01
SYO-1, 10 µM	1

COc1cc(Nc2c(C#N)cnc3cc(OCCCN4CCN(C)CC4)c(OC)cc23)c(Cl)cc1Cl [Bosutinib]
Details	relative viability
A204, 0.00017 µM	1.09
A204, 0.00051 µM	1.12
A204, 0.00152 µM	1.09
A204, 0.00457 µM	1.13
A204, 0.01372 µM	1.17
A204, 0.04115 µM	1.21
A204, 0.1235 µM	1.23
A204, 0.3704 µM	1.21
A204, 1.111 µM	1.111
A204, 3.333 µM	0.807
A204, 10 µM	0.259
G401, 0.00017 µM	1.09
G401, 0.00051 µM	1.09
G401, 0.00152 µM	1.08
G401, 0.00457 µM	1.06
G401, 0.01372 µM	1.09
G401, 0.04115 µM	1.09
G401, 0.1235 µM	1.08
G401, 0.3704 µM	1.08
G401, 1.111 µM	1.03
G401, 3.333 µM	0.909
G401, 10 µM	0.0203
HT1080, 0.00017 µM	1.14
HT1080, 0.00051 µM	1.14
HT1080, 0.00152 µM	1.09
HT1080, 0.00457 µM	1.14
HT1080, 0.01372 µM	1.11
HT1080, 0.04115 µM	1.16
HT1080, 0.1235 µM	1.14
HT1080, 0.3704 µM	1.14
HT1080, 1.111 µM	1.05
HT1080, 3.333 µM	0.775
HT1080, 10 µM	0.0548
KHOS-240S, 0.00017 µM	1.07
KHOS-240S, 0.00051 µM	1.08
KHOS-240S, 0.00152 µM	1.08
KHOS-240S, 0.00457 µM	1.1
KHOS-240S, 0.01372 µM	1.08
KHOS-240S, 0.04115 µM	1.06
KHOS-240S, 0.1235 µM	1.04
KHOS-240S, 0.3704 µM	0.962
KHOS-240S, 1.111 µM	0.734
KHOS-240S, 3.333 µM	0.49
KHOS-240S, 10 µM	0.0326
KHOS-NP, 0.00017 µM	1.08
KHOS-NP, 0.00051 µM	1.12
KHOS-NP, 0.00152 µM	1.13
KHOS-NP, 0.00457 µM	1.11
KHOS-NP, 0.01372 µM	1.117
KHOS-NP, 0.04115 µM	1.11
KHOS-NP, 0.1235 µM	1.1
KHOS-NP, 0.3704 µM	1.01
KHOS-NP, 1.111 µM	0.837
KHOS-NP, 3.333 µM	0.482
KHOS-NP, 10 µM	0.264
RD-ES, 0.00017 µM	0.965
RD-ES, 0.00051 µM	0.981
RD-ES, 0.00152 µM	0.987
RD-ES, 0.00457 µM	0.972
RD-ES, 0.01372 µM	0.98
RD-ES, 0.04115 µM	0.974
RD-ES, 0.1235 µM	0.941
RD-ES, 0.3704 µM	0.906
RD-ES, 1.111 µM	0.715
RD-ES, 3.333 µM	0.472
RD-ES, 10 µM	0.0125
SK-ES-1, 0.00017 µM	1.05
SK-ES-1, 0.00051 µM	1.06
SK-ES-1, 0.00152 µM	1.06
SK-ES-1, 0.00457 µM	1.07
SK-ES-1, 0.01372 µM	1
SK-ES-1, 0.04115 µM	1.02
SK-ES-1, 0.1235 µM	0.935
SK-ES-1, 0.3704 µM	0.732
SK-ES-1, 1.111 µM	0.482
SK-ES-1, 3.333 µM	0.303
SK-ES-1, 10 µM	0.136
SW684, 0.00017 µM	1.24
SW684, 0.00051 µM	1.25
SW684, 0.00152 µM	1.306
SW684, 0.00457 µM	1.27
SW684, 0.01372 µM	1.25
SW684, 0.04115 µM	1.28
SW684, 0.1235 µM	1.33
SW684, 0.3704 µM	1.31
SW684, 1.111 µM	1.05
SW684, 3.333 µM	0.6
SW684, 10 µM	0.101
SW872, 0.00017 µM	1.1
SW872, 0.00051 µM	1.131
SW872, 0.00152 µM	1.12
SW872, 0.00457 µM	1.12
SW872, 0.01372 µM	1.12
SW872, 0.04115 µM	1.123
SW872, 0.1235 µM	1.085
SW872, 0.3704 µM	0.984
SW872, 1.111 µM	0.727
SW872, 3.333 µM	0.555
SW872, 10 µM	0.0547
SW982, 0.00017 µM	1.05
SW982, 0.00051 µM	1.08
SW982, 0.00152 µM	1.08
SW982, 0.00457 µM	1.08
SW982, 0.01372 µM	1.09
SW982, 0.04115 µM	1.08
SW982, 0.1235 µM	1.05
SW982, 0.3704 µM	0.816
SW982, 1.111 µM	0.511
SW982, 3.333 µM	0.359
SW982, 10 µM	0.0126
SW1353, 0.00017 µM	1.11
SW1353, 0.00051 µM	1.11
SW1353, 0.00152 µM	1.12
SW1353, 0.00457 µM	1.09
SW1353, 0.01372 µM	1.1
SW1353, 0.04115 µM	1.13
SW1353, 0.1235 µM	1.09
SW1353, 0.3704 µM	1.04
SW1353, 1.111 µM	0.896
SW1353, 3.333 µM	0.673
SW1353, 10 µM	0.0287
SYO-1, 0.00017 µM	1.04
SYO-1, 0.00051 µM	1.03
SYO-1, 0.00152 µM	1.02
SYO-1, 0.00457 µM	1.04
SYO-1, 0.01372 µM	1.01
SYO-1, 0.04115 µM	0.989
SYO-1, 0.1235 µM	0.966
SYO-1, 0.3704 µM	0.966
SYO-1, 1.111 µM	0.868
SYO-1, 3.333 µM	0.641
SYO-1, 10 µM	-0.0056
